Assays:
[1] = molecular target: T1, SRC (Homo sapiens, UniProt P12931); test: Invitrogen SelectScreen kinase profiling; type: biochemical; details: 100 nM
T1 construct: purchased Invitrogen SelectScreen
Protocol: (§1) The FLT3 and VEGFR1/2 Kinase-Glo kinase assays were performed as reported by our earlier study. The VEGFR3 activity analysis was conducted using the same protocol described in the VEGFR1/2 assay. The kinase inhibition profiling and inhibitory activity of FLT3-D835Y, CSF1R, and TRKA were determined by Invitrogen SelectScreen® kinase profiling service (Carlsbad, California, USA).
(§2) BPR1J-340, a urea-substituted 3-phenyl-1H-5-pyrazolylamine-based compound, was designed through chemical modification of sulfonamide series of derivatives (BPR1J-097 series) by a structure-activity relationship (SAR) study (Fig. 1), [32]. For kinase inhibition specificity screening, BPR1J-340 was tested against 59 protein kinases covering the major oncogenic kinases of human protein kinome. […] In addition, BPR1J-340 inhibited TRKA, which is associated with the growth and metastasis of breast cancers, with an IC50 value of 8 nM. Given the high similarity of the ATP binding pockets of FLT3 and the Aurora kinases, the inhibitory activity toward Aurora A and Aurora B were measured. […] Taken together, BPRJ-340 is a selective kinase inhibitor with in vitro activity against FLT3, VEGFR2, VEGFR3 and TRKA receptor tyrosine kinases.

[2] = molecular target: T2, TEK (Tie2) (Homo sapiens, UniProt Q02763); test: Invitrogen SelectScreen kinase profiling; type: biochemical; details: 100 nM
T2 construct: purchased Invitrogen SelectScreen
Protocol: as §1, §2

[3] = molecular target: T3, NEK1 (Homo sapiens, UniProt Q96PY6); test: Invitrogen SelectScreen kinase profiling; type: biochemical; details: 100 nM
T3 construct: purchased Invitrogen SelectScreen
Protocol: as §1, §2

[4] = molecular target: T4, LYN A (Homo sapiens, UniProt P07948); test: Invitrogen SelectScreen kinase profiling; type: biochemical; details: 100 nM
T4 construct: purchased Invitrogen SelectScreen
T4 sequence (P07948 whole entry): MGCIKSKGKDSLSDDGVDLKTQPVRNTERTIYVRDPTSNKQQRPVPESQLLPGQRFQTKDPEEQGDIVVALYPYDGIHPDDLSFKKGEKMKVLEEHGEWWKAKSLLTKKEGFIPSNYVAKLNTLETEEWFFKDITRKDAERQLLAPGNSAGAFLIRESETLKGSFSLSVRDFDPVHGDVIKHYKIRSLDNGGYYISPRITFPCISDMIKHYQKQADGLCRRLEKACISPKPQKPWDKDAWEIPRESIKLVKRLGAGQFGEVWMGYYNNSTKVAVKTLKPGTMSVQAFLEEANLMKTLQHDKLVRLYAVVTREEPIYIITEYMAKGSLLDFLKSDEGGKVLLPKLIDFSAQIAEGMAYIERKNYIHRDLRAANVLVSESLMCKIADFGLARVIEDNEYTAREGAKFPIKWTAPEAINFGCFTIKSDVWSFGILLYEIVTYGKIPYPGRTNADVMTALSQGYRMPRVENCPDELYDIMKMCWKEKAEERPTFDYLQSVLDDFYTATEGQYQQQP
Protocol: as §1, §2

[5] = molecular target: T5, KIT (Homo sapiens, UniProt P10721); test: Invitrogen SelectScreen kinase profiling; type: biochemical; details: 100 nM
T5 construct: purchased Invitrogen SelectScreen
T5 sequence (P10721 26-976): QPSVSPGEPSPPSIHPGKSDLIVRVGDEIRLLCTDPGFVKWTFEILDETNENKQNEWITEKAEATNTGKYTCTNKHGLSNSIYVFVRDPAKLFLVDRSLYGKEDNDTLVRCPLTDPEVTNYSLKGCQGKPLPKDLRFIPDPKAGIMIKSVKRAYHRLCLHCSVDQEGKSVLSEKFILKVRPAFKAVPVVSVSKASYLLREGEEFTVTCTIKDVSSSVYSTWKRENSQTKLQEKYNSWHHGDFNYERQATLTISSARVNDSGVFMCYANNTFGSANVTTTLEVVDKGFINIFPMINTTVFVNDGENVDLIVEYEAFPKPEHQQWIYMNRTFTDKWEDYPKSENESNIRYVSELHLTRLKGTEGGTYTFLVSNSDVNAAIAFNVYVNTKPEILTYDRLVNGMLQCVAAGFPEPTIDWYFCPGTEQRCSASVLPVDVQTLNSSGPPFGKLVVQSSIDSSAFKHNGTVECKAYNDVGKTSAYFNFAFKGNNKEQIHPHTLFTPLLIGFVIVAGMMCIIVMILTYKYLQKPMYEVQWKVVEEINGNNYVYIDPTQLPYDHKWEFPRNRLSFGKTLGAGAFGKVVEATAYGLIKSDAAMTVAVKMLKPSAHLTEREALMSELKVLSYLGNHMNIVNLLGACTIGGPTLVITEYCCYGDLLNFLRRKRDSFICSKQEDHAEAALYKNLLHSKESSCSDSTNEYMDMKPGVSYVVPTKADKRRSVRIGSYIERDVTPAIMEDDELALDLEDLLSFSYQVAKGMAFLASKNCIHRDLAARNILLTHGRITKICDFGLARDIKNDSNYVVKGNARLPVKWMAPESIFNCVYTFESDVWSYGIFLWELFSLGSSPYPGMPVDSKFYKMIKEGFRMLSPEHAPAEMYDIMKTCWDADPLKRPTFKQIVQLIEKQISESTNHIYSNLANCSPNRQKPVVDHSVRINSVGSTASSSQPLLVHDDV
Protocol: as §1, §2

[6] = molecular target: T6, BTK (Homo sapiens, UniProt Q06187); test: Invitrogen SelectScreen kinase profiling; type: biochemical; details: 100 nM
T6 construct: purchased Invitrogen SelectScreen
Protocol: as §1, §2

[7] = molecular target: T7, CHEK2 (CHK2) (Homo sapiens, UniProt O96017); test: Invitrogen SelectScreen kinase profiling; type: biochemical; details: 100 nM
T7 construct: purchased Invitrogen SelectScreen
T7 sequence (O96017 whole entry): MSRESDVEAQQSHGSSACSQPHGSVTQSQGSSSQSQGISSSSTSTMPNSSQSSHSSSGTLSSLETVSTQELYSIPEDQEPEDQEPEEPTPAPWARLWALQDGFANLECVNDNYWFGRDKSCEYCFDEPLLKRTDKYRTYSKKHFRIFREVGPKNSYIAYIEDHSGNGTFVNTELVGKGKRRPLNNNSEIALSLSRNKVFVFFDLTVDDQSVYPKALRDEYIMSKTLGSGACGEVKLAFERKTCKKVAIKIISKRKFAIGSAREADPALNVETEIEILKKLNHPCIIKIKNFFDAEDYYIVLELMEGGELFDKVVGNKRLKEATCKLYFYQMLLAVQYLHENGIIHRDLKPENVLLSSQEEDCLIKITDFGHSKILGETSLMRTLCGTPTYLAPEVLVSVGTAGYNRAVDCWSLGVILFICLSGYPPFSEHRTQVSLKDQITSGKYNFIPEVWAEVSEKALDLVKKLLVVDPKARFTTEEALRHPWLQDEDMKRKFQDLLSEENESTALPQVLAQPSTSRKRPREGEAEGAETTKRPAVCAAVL
Protocol: as §1, §2

[8] = molecular target: T8, AXL (Homo sapiens, UniProt P30530); test: Invitrogen SelectScreen kinase profiling; type: biochemical; details: 100 nM
T8 construct: purchased Invitrogen SelectScreen
Protocol: as §1, §2

[9] = molecular target: T9, TYRO3 (RSE) (Homo sapiens, UniProt Q06418); test: Invitrogen SelectScreen kinase profiling; type: biochemical; details: 100 nM
T9 construct: purchased Invitrogen SelectScreen
Protocol: as §1, §2

[10] = molecular target: T10, PIM1 (Homo sapiens, UniProt P11309); test: Invitrogen SelectScreen kinase profiling; type: biochemical; details: 100 nM
T10 construct: purchased Invitrogen SelectScreen
Protocol: as §1, §2

[11] = molecular target: T11, PDGFRB (PDGFR beta) (Homo sapiens, UniProt P09619); test: Invitrogen SelectScreen kinase profiling; type: biochemical; details: 100 nM
T11 construct: purchased Invitrogen SelectScreen
Protocol: as §1, §2

[12] = molecular target: T12, JAK1 (Homo sapiens, UniProt P23458); test: Invitrogen SelectScreen kinase profiling; type: biochemical; details: 100 nM
T12 construct: purchased Invitrogen SelectScreen
Protocol: as §1, §2

[13] = molecular target: T13, JAK2 (Homo sapiens, UniProt O60674); test: Invitrogen SelectScreen kinase profiling; type: biochemical; details: 100 nM
T13 construct: purchased Invitrogen SelectScreen
T13 sequence (O60674 whole entry): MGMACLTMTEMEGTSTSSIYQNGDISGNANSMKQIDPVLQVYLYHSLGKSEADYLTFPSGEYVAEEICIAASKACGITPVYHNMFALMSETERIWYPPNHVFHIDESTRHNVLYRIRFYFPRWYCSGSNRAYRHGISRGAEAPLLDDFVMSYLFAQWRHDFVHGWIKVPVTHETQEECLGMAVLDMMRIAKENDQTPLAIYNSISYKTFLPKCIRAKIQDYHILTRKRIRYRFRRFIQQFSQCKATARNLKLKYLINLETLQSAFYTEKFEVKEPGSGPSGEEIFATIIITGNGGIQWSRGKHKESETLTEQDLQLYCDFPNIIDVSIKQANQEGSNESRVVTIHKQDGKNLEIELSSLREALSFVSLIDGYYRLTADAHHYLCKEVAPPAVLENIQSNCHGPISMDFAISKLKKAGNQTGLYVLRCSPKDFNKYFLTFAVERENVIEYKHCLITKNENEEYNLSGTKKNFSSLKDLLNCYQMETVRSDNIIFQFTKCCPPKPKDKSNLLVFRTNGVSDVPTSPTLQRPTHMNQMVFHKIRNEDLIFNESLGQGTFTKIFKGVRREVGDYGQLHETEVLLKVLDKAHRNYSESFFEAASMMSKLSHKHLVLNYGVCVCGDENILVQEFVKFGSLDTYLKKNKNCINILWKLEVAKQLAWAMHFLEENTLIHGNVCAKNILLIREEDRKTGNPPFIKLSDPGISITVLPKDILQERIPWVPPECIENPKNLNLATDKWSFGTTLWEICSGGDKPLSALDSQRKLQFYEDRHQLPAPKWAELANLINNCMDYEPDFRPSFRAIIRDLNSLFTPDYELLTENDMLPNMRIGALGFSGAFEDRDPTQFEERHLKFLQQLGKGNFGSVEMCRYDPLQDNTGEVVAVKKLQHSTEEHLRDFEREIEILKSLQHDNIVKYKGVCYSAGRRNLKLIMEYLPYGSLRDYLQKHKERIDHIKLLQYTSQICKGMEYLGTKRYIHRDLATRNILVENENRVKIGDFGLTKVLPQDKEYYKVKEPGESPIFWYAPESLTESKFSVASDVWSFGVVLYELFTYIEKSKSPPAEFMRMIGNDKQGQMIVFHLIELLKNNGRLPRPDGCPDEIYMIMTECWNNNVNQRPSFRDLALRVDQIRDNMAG
Protocol: as §1, §2

[14] = molecular target: T14, SGKL (SGK3) (Homo sapiens, UniProt Q96BR1); test: Invitrogen SelectScreen kinase profiling; type: biochemical; details: 100 nM
T14 construct: purchased Invitrogen SelectScreen
Protocol: as §1, §2

[15] = molecular target: T15, GSK3A (GSK3 alpha) (Homo sapiens, UniProt P49840); test: Invitrogen SelectScreen kinase profiling; type: biochemical; details: 100 nM
T15 construct: purchased Invitrogen SelectScreen
Protocol: as §1, §2

[16] = molecular target: T16, MAPK14 (p38 alpha) (Homo sapiens, UniProt Q16539); test: Invitrogen SelectScreen kinase profiling; type: biochemical; details: 100 nM
T16 construct: purchased Invitrogen SelectScreen
T16 sequence (Q16539 whole entry): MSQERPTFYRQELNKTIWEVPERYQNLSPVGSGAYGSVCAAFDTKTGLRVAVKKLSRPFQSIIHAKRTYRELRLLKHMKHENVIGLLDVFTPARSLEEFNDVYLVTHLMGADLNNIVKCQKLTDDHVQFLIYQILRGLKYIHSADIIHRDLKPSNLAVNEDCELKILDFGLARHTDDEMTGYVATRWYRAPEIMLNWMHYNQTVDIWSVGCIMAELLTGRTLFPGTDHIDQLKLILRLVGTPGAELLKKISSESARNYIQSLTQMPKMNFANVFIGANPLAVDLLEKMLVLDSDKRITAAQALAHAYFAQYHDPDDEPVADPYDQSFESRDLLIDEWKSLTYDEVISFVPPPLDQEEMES
Protocol: as §1, §2

[17] = molecular target: T17, AURKC (Aurora C) (Homo sapiens, UniProt Q9UQB9); test: Invitrogen SelectScreen kinase profiling; type: biochemical; details: 100 nM
T17 construct: purchased Invitrogen SelectScreen
Protocol: as §1, §2

[18] = molecular target: T18, CDC42 BPA (MRCKA) (Homo sapiens, UniProt Q5VT25); test: Invitrogen SelectScreen kinase profiling; type: biochemical; details: 100 nM
T18 construct: purchased Invitrogen SelectScreen
Protocol: as §1, §2

[19] = molecular target: FLT3-ITD (Homo sapiens, UniProt P36888); test: FLT3 phosphorylation in MV4;11 cells, Western blot; type: cell-based; details: 1 hour
Sequence of FLT3-ITD (P36888 27-993, change not shown): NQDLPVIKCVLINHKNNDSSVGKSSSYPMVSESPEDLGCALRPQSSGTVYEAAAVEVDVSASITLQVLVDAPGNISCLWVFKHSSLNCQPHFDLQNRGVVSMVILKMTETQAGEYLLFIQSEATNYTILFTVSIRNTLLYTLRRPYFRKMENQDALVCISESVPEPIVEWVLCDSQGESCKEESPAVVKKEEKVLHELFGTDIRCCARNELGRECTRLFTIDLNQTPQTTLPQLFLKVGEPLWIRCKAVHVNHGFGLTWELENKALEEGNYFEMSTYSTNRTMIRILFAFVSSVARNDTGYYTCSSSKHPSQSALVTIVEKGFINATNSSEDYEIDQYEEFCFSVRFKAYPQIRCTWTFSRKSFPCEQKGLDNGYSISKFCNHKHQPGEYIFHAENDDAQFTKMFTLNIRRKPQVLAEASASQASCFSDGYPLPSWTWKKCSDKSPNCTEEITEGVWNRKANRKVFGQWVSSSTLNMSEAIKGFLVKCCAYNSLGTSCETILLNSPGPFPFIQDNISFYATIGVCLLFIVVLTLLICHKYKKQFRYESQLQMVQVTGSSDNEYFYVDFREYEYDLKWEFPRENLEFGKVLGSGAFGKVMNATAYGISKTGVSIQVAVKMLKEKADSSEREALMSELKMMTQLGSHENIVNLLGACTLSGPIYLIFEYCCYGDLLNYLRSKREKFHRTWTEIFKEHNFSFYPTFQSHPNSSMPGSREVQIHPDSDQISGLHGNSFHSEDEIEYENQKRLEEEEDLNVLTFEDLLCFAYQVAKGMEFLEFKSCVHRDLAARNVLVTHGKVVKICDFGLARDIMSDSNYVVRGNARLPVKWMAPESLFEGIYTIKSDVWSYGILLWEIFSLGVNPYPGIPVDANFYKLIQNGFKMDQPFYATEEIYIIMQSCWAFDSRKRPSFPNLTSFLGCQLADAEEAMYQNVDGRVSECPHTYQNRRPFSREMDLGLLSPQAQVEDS
Protocol: Cells were lysed in lysis buffer (50 mM Tris, pH 8.0, 150 mM NaCl, 1% Triton X-100, 0.5% sodium deoxycholate, 0.1% SDS, 1 mM sodium orthovanadate, 1 mM PMSF, and 1 mM DTT). Protein lysates were resolved by SDS-PAGE and transferred onto a polyvinylidene difluoride (PVDF) membrane (Millipore, Bedford, MA, USA). The membranes were immunoblotted with appropriate antibodies and detected using the SuperSignal reagent (Pierce, Rockford, IL, USA) followed by exposure to X-ray film.
To address whether BPR1J-340 was able to inhibit the FLT3 signaling pathway in FLT3-driven cells, MV4;11 cells were treated with different concentrations of BPR1J-340 for 1 hour, and the phosphorylation status of FLT3 and STAT5 (Signal Transducer and Activator of Transcription 5), a critical down-stream modulator that plays a major role in FLT3-ITD signal transduction for cell expansion and survival, was examined by Western blot analysis. […] To investigate the difference in sensitivity between FLT3-WT and the activating mutants FLT3-ITD and FLT3-D835Y to BPR1J-340, HEK293T cells engineered to express FLT3-WT or mutants FLT3 (FLT3-ITD, FLT3-D835Y) were analyzed. […]
Figure 2 BPR1J-340 inhibits FLT3-dependent signaling. […] The phosphorylation status of FLT3 and STAT5 were evaluated by Western blot analysis. […] The FLT3 phosphorylation status in the transfected cells was evaluated by Western blot analysis.

T1 sequence (P12931 whole entry): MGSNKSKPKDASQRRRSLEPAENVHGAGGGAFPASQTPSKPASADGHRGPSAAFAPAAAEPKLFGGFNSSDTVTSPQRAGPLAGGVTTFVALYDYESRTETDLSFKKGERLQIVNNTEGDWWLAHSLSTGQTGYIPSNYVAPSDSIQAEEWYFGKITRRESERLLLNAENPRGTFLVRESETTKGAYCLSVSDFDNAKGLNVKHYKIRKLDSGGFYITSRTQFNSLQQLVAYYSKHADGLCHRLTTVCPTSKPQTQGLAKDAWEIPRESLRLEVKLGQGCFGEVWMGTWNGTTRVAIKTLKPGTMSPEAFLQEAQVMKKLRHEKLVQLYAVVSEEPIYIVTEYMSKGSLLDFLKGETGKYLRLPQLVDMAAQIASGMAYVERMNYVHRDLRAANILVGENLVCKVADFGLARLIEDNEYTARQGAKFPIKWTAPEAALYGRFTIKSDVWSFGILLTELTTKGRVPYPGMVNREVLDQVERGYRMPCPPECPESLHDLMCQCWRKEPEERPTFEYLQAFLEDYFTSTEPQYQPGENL

Work on `CCc1cc(NC(=O)NCc2ccc(-c3cc(NC(=O)c4ccc(CN5CCN(C)CC5)cc4)[nH]n3)cc2)no1` [BPR1J-340, N1-(3-4-[([(5-ethyl-3-isoxazolyl)amino]carbonylamino)methyl]phenyl-1H-5-pyrazolyl)-4-[(4-methylpiperazino)methyl]benzamide] yielded an inhibition at 0.1 µM [1] of 34%, an inhibition at 0.1 µM [2] of 42% and an inhibition at 0.1 µM [3] of -6%. For the same molecule, the inhibition at 0.1 µM [4] was 17%, the inhibition at 0.1 µM [5] was 66% and the inhibition at 0.1 µM [6] was 7%. The inhibition at 0.1 µM [7] was -6%, the inhibition at 0.1 µM [8] was -4% and the inhibition at 0.1 µM [9] was 15%. For the same molecule, the inhibition at 0.1 µM [10] was -5%, the inhibition at 0.1 µM [11] was 39% and the inhibition at 0.1 µM [12] was -3%. For the same molecule, the inhibition at 0.1 µM [13] was 9%, the inhibition at 0.1 µM [14] was 12% and the inhibition at 0.1 µM [15] was -1%. The inhibition at 0.1 µM [16] was 24%, the inhibition at 0.1 µM [17] was 19% and the inhibition at 0.1 µM [18] was -8%. For the same molecule, the IC50 [19] was roughly 1 nM.

Reference: article PMC3885398, “Evaluation of the Antitumor Effects of BPR1J-340, a Potent and Selective FLT3 Inhibitor, Alone or in Combination with an HDAC Inhibitor, Vorinostat, in AML Cancer” (PLoS ONE, 2014)
